# According to article PMC5909127, “Optimization of a “bump-and-hole” approach to allele-selective BET bromodomain inhibition” (Chemical Science, 2018):
# Columns and labels:
# [1] = target: WT BET bromodomains (BD1 and BD2 of BRD2, BRD3 and BRD4); test: competitive AlphaLISA (Bio-JQ1 displacement); format: binding, human; conditions: mean and SD of all somatic bromodomains; active enantiomer concentration
# [2] = tested on: L/V BET bromodomains (BD1 and BD2 of BRD2, BRD3 and BRD4); test: competitive AlphaLISA (Bio-JQ1 displacement); format: binding, human; conditions: L/V minus WT
# BRD2 BD1 WT [3] = target: T1, BRD2 BD1 WT (Homo sapiens, UniProt P25440); test: competitive AlphaLISA; format: binding
# BRD2 BD1 L/V [4] = target: T2, BRD2 BD1 L/V (Homo sapiens, UniProt P25440, L110V); test: competitive AlphaLISA; format: binding
# BRD2 BD2 WT [5] = target: T3, BRD2 BD2 WT (Homo sapiens, UniProt P25440); test: competitive AlphaLISA; format: binding
# BRD2 BD2 L/V [6] = target: T4, BRD2 BD2 L/V (Homo sapiens, UniProt P25440, L383V); test: competitive AlphaLISA; format: binding
# BRD3 BD1 WT [7] = target: T5, BRD3 BD1 WT (Homo sapiens, UniProt Q15059); test: competitive AlphaLISA; format: binding
# BRD3 BD1 L/V [8] = target: T6, BRD3 BD1 L/V (Homo sapiens, UniProt Q15059, L70V); test: competitive AlphaLISA; format: binding
# BRD3 BD2 WT [9] = target: T7, BRD3 BD2 WT (Homo sapiens, UniProt Q15059); test: competitive AlphaLISA; format: binding
# BRD3 BD2 L/V [10] = target: T8, BRD3 BD2 L/V (Homo sapiens, UniProt Q15059, L345V); test: competitive AlphaLISA; format: binding
# BRD4 BD1 WT [11] = target: T9, BRD4 BD1 WT (Homo sapiens, UniProt O60885); test: competitive AlphaLISA; format: binding
# BRD4 BD1 L/V [12] = target: T10, BRD4 BD1 L/V (Homo sapiens, UniProt O60885, L94V); test: competitive AlphaLISA; format: binding
# BRD4 BD2 WT [13] = target: T11, BRD4 BD2 WT (Homo sapiens, UniProt O60885); test: competitive AlphaLISA; format: binding
# BRD4 BD2 L/V [14] = target: T12, BRD4 BD2 L/V (Homo sapiens, UniProt O60885, L387V); test: competitive AlphaLISA; format: binding
# BRDT BD1 WT = BRDT BD1 WT (Homo sapiens, UniProt Q58F21); test: competitive AlphaLISA; format: binding
# BRDT BD1 L/V = BRDT BD1 L/V (Homo sapiens, UniProt Q58F21, L63V); test: competitive AlphaLISA; format: binding
# BRD2 BD1 WT [15] = target: T1, BRD2 BD1 WT; test: ITC; format: binding
# BRD2 BD1 L/V [16] = target: T2, BRD2 BD1 L/V; test: ITC; format: binding
# BRD2 BD2 WT [17] = target: T3, BRD2 BD2 WT; test: ITC; format: binding
# BRD2 BD2 L/V [18] = target: T4, BRD2 BD2 L/V; test: ITC; format: binding
# BRD3 BD1 WT [19] = target: T5, BRD3 BD1 WT; test: ITC; format: binding
# BRD3 BD1 L/V [20] = target: T6, BRD3 BD1 L/V; test: ITC; format: binding
# BRD3 BD2 WT [21] = target: T7, BRD3 BD2 WT; test: ITC; format: binding
# BRD3 BD2 L/V [22] = target: T8, BRD3 BD2 L/V; test: ITC; format: binding
# BRD4 BD1 WT [23] = target: T9, BRD4 BD1 WT; test: ITC; format: binding
# BRD4 BD1 L/V [24] = target: T10, BRD4 BD1 L/V; test: ITC; format: binding; conditions: for Kd: Kd BRD4 BD1 L/V
# BRD4 BD2 WT [25] = target: T11, BRD4 BD2 WT; test: ITC; format: binding
# BRD4 BD2 L/V [26] = target: T12, BRD4 BD2 L/V; test: ITC; format: binding
# [27] = target: WT somatic BET bromodomains; test: ITC; conditions: mean and SD of all somatic bromodomains
# [28] = tested on: L/V somatic BET bromodomains; test: ITC; conditions: L/V minus WT
# in vitro = conditions: PAMPA, pH 7.4
# Plasma Half-life = conditions: BALB/c, mouse, pH 7.4
# Intrinsic Clearance = conditions: mouse liver microsomes
# BRDT BD2 WT = BRDT BD2 WT (Homo sapiens, UniProt Q58F21); test: competitive AlphaLISA; format: binding
# [29] = AlphaLISA pIC50 Value BRD4 BD1 WT
# [30] = AlphaLISA pIC50 Value BRD4 BD1 L/V
# T8 sequence (Q15059 306-416 L345V limits assumed): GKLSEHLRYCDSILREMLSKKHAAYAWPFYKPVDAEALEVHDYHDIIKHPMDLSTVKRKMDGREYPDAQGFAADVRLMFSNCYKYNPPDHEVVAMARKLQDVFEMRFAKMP
# T3 sequence (P25440 344-455): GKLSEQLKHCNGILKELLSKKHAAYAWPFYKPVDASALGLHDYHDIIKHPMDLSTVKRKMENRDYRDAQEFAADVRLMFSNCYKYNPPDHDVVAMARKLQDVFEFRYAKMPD
# T2 sequence (P25440 71-176 L110V limits assumed): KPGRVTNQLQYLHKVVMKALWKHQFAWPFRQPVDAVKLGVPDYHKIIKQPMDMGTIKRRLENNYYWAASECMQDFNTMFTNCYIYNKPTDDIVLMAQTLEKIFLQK
# T7 sequence (Q15059 306-416): as the sequence (Q15059 306-416 L345V limits assumed) above, with V40L counted along it
# T4 sequence (P25440 344-455 L383V): as the sequence (P25440 344-455) above, with L40V counted along it
# T1 sequence (P25440 71-176): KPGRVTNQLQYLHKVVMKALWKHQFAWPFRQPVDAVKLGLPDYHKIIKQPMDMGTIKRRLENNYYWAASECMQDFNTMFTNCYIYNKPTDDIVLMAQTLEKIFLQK
# T5 sequence (Q15059 24-144): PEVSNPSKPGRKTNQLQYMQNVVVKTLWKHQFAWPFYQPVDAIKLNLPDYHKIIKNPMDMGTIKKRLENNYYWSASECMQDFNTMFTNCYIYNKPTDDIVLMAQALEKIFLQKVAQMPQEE
# T6 sequence (Q15059 24-144 L70V limits assumed): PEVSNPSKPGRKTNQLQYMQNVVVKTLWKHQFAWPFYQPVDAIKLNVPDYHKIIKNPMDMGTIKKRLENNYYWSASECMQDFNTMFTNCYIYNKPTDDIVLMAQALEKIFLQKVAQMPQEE
smiles,measurement,setting,value
"C=CC[C@@H](C(=O)OC)[C@@H]1N=C(c2ccc(Cl)cc2)c2cc(OC)ccc2-n2c(C)nnc21 (racemic) [Compound 5, (+-)methyl (R)-2-((S)-6-(4-chlorophenyl)-8-methoxy-1-methyl-4H-benzo[f][1,2,4]triazolo[4,3-a][1,4]diazepin-4-yl)pent-4-enoate]",AlphaLISA pIC50 ± SD WT,[1],5.1 ± 0.1
same,AlphaLISA pIC50 ± SD Δ,[2],1.5 ± 0.3
same,IC50,BRD2 BD1 WT [3],10000 nM
same,IC50,BRD2 BD1 L/V [4],1000 nM
same,IC50,BRD2 BD2 WT [5],10000 nM
same,IC50,BRD2 BD2 L/V [6],158 nM
same,IC50,BRD3 BD1 WT [7],3980 nM
same,IC50,BRD3 BD1 L/V [8],126 nM
same,IC50,BRD3 BD2 WT [9],10000 nM
same,IC50,BRD3 BD2 L/V [10],126 nM
same,IC50,BRD4 BD1 WT [11]; [29],7940 nM
same,IC50,BRD4 BD1 L/V [12]; [30],316 nM
same,IC50,BRD4 BD2 WT [13],10000 nM
same,IC50,BRD4 BD2 L/V [14],251 nM
same,IC50,BRDT BD1 WT,20000 nM
same,IC50,BRDT BD1 L/V,2000 nM
same,Kd,BRD2 BD1 WT [15],8400 nM
same,ΔH BRD2 BD1 WT,BRD2 BD1 WT [15]; ITC,-4.0 kcal/mol
same,N BRD2 BD1 WT,BRD2 BD1 WT [15]; ITC stoichiometry,1.0
same,Kd,BRD2 BD1 L/V [16],470 nM
same,ΔH BRD2 BD1 L/V,BRD2 BD1 L/V [16]; ITC,-10.3 kcal/mol
same,Kd,BRD2 BD2 WT [17],5800 nM
same,ΔH BRD2 BD2 WT,BRD2 BD2 WT [17]; ITC,-2.3 kcal/mol
same,N BRD2 BD2 WT,BRD2 BD2 WT [17]; ITC stoichiometry,0.75
same,Kd,BRD2 BD2 L/V [18],240 nM
same,ΔH BRD2 BD2 L/V,BRD2 BD2 L/V [18]; ITC,-5.9 kcal/mol
same,Kd,BRD3 BD1 WT [19],1500 nM
same,ΔH BRD3 BD1 WT,BRD3 BD1 WT [19]; ITC,-2.3 kcal/mol
same,N BRD3 BD1 WT,BRD3 BD1 WT [19]; ITC stoichiometry,0.85
same,Kd,BRD3 BD1 L/V [20],270 nM
same,ΔH BRD3 BD1 L/V,BRD3 BD1 L/V [20]; ITC,-11.3 kcal/mol
same,Kd,BRD3 BD2 WT [21],23000 nM
same,ΔH BRD3 BD2 WT,BRD3 BD2 WT [21]; ITC,-3.7 kcal/mol
same,Kd,BRD3 BD2 L/V [22],310 nM
same,ΔH BRD3 BD2 L/V,BRD3 BD2 L/V [22]; ITC,-8.5 kcal/mol
same,Kd,BRD4 BD1 WT [23],9700 nM
same,ΔH BRD4 BD1 WT,BRD4 BD1 WT [23]; ITC,-3.5 kcal/mol
same,N BRD4 BD1 WT,BRD4 BD1 WT [23]; ITC stoichiometry,1.10
same,ΔH BRD4 BD1 L/V,BRD4 BD1 L/V [24]; ITC,-7.4 kcal/mol
same,Kd,"BRD4 BD1 L/V [24]; ITC, 30°C",180 nM
same,ΔH BRD4 BD2 WT,BRD4 BD2 WT [25]; ITC,-2.2 kcal/mol
same,N BRD4 BD2 WT,BRD4 BD2 WT [25]; ITC stoichiometry,0.98
same,Kd,BRD4 BD2 L/V [26],170 nM
same,ΔH BRD4 BD2 L/V,BRD4 BD2 L/V [26]; ITC,-6.4 kcal/mol
same,ITC pKd ± SD WT,[27],5.1 ± 0.4
same,ITC pKd ± SD Δ,[28],1.5 ± 0.5
same,Papp,in vitro,12.7 ×10⁻⁶ cm/s
same,half-life at 50 µM,Plasma Half-life,> 3 h
same,CL int,Intrinsic Clearance,6.7 ml min^–1 g^–1
COC(=O)[C@H](C)[C@@H]1N=C(c2ccc(Cl)cc2)c2ccc(OC)cc2-n2c(C)nnc21 (racemic) [Compound 7],AlphaLISA pIC50 ± SD WT,[1],5.4 ± 0.2
same,AlphaLISA pIC50 ± SD Δ,[2],1.4 ± 0.2
same,IC50,BRD2 BD1 WT [3],3160 nM
same,IC50,BRD2 BD1 L/V [4],200 nM
same,IC50,BRD2 BD2 WT [5],7940 nM
same,IC50,BRD2 BD2 L/V [6],316 nM
same,IC50,BRD3 BD1 WT [7],1580 nM
same,IC50,BRD3 BD1 L/V [8],100 nM
same,IC50,BRD3 BD2 WT [9],5010 nM
same,IC50,BRD3 BD2 L/V [10],100 nM
same,IC50,BRD4 BD1 WT [11]; [29],3160 nM
same,IC50,"BRD4 BD1 WT [11]; pIC50 BRD4 BD1 WT, separated enantiomers test, total compound concentration",12600 nM
same,IC50,BRD4 BD1 L/V [12]; [30],200 nM
same,ΔpIC50 BRD4 BD1,"BRD4 BD1 L/V [12]; L/V minus WT, total compound concentration",1.4
same,IC50,"BRD4 BD1 L/V [12]; pIC50 BRD4 BD1 L/V, separated enantiomers test, total compound concentration",631 nM
same,IC50,BRD4 BD2 WT [13],6310 nM
same,IC50,BRD4 BD2 L/V [14],200 nM
same,IC50,BRDT BD1 WT,5010 nM
same,IC50,BRDT BD1 L/V,251 nM
same,IC50,BRDT BD2 WT,7940 nM
same,Kd,BRD2 BD1 WT [15],32000 nM
same,Kd,BRD2 BD1 L/V [16],310 nM
same,Kd,BRD2 BD2 WT [17],> 60000 nM
same,Kd,BRD2 BD2 L/V [18],330 nM
same,Kd,BRD3 BD1 WT [19],12000 nM
same,Kd,BRD3 BD1 L/V [20],140 nM
same,Kd,BRD3 BD2 L/V [22],230 nM
same,Kd,BRD4 BD1 WT [23],28000 nM
same,ΔH BRD4 BD1 L/V,"BRD4 BD1 L/V [24]; ITC, total compound concentration",-4.2 ± 0.0 kcal/mol
same,Kd,"BRD4 BD1 L/V [24]; ITC of separated enantiomers and racemates, total compound concentration",500 ± 50 nM
same,Kd,"BRD4 BD1 L/V [24]; ITC, 30°C",140 nM
same,Kd,BRD4 BD2 WT [25],33000 nM
same,Kd,BRD4 BD2 L/V [26],980 nM
same,ITC pKd ± SD Δ,[28],2.0 ± 0.4
same,Papp,in vitro,15.8 ×10⁻⁶ cm/s
same,half-life at 50 µM,Plasma Half-life,> 3 h
same,CL int,Intrinsic Clearance,<0.5 ml min^–1 g^–1
